Assay results as given in PMC10967203, “Rolapitant treats lung cancer by targeting deubiquitinase OTUD3” (Cell Communication and Signaling : CCS, 2024).

Molecular target: T1, OTUD3 (Homo sapiens, UniProt Q5T2D3)
T1 sequence (Q5T2D3 1-398): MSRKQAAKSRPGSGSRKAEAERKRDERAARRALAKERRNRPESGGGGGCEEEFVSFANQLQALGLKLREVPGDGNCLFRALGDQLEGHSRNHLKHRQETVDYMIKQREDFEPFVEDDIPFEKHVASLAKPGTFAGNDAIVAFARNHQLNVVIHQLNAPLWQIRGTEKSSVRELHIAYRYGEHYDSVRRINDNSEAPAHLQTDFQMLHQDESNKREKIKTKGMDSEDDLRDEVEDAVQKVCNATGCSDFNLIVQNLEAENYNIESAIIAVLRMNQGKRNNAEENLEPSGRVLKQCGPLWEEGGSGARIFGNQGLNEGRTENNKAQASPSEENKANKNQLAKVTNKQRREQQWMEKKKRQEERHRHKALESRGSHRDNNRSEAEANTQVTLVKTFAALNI
Experiment: microscale thermophoresis (MST) with labeled OTUD3; supported by in vitro K48 di-ubiquitin cleavage assay with purified OTUD3 OTU (aa […]) at […] Rolapitant
Assay type: binding

Compound: C[C@@H](OC[C@@]1(c2ccccc2)CC[C@]2(CCC(=O)N2)CN1)c1cc(C(F)(F)F)cc(C(F)(F)F)c1 [Rolapitant]
- microscale thermophoresis (MST) with labeled OTUD3; supported by in vitro K48 di: MST (microscale thermophoresis) assays shown that OTUD3 could directly bind to Rolapitant in vitro
